Tested on: Healthy Articular Chondrocytes (HACs)
Assay: LPS-stimulated intracellular ROS (CM-H2DCFDA) in healthy chondrocytes
Assay type: cell-based, human
Settings: 0.1 μM and 1 μM, 1 h pretreatment, then LPS 1 μg/ml for 48 h
Protocol: Human articular chondrocytes (HAC) were transiently transfected with a siRNA control or targeting USP16 as described in Example 2. 36 hours post knockdown, cells were stimulated with LPS 1 μg/ml) for 48 h. Healthy Articular Chondrocytes (HACs) were pretreated with 0.1- and 1-μM Compound 2 for 1 h and then stimulated with LPS (1 μg/ml) for 48 h. At the end of the treatment, fluorescent dye, CM-H2DCFDA (final concentration 10 μl of 20 μM) was added to cells and incubated for 30 min in CO2 incubator to measure the intracellular ROS produced in these cells. After incubation, the cells were washed with cold-phosphate buffered saline and the fluorescence intensity of the stained cells was measured at an excitation and emission wavelength of 485 nm and 530 nm respectively. Fluorescence intensity was then normalized for cell number using Hoechst staining.
Chondrocytes were pretreated with 0.1- and 1-μM CA for 1 h and then stimulated with LPS (1 μg/m)l for 48 h. For siRNA experiment, LPS stimulation was performed 36 hours after knockdown for additional 48 h. […] After incubation, the cells were washed with cold-phosphate buffered saline and the fluorescence intensity of the stained cells was measured at an excitation and emission wavelength of 485 nm and 530 nm respectively. Fluorescence intensity was then normalized for cell number using Hoechst staining.

SMILES: C#Cc1ccc(CNC(=O)c2cc(C(=O)CCl)cn2C)cc1 [Compound 2]
- inflammation-induced oxidative stress (intracellular ROS): reduced inflammation-induced oxidative stress in healthy chondrocytes in a dose-dependent manner

— patent publication US12606827B2, “Compounds for treatment of osteoarthritis” (Altos Labs, Inc., priority 2020, dated 2026)
